Data: patent publication US20230220480A1, “IRON-SCORE AND IN VITRO METHOD FOR IDENTIFYING HIGH RISK DLBCL SUBJECTS AND THERAPEUTIC USES AND METHODS” (CENTRE NATIONAL DE LA RECHERCHE SCIENTIFIQUE (CNRS), priority 2019, published 2023)
Read-outs that look alike come from different tables or passages of the source.

Experiments:
DLBCL cells = assay: Ferroptosis, Bodipy-C11 staining and ferrostatin-1 rescue; assay type: cell-based, human
DB = assay: Cell viability assay (CellTiter-Glo, ATP quantification); assay type: cell-based, human; settings: cell viability by ATP quantification, read-out: 50% inhibitory concentration (IC50)
Experimental: (§1) FIG. 3: Iron chelators and Ironomycin inhibit DLBCL cell growth DLBCL cells were incubated with different concentrations of iron chelators or vehicle for 96H. Inhibitory concentration 50% (IC50) was calculated with concentration-response curve after treatment with Deferoxamin (A), Deferasirox, (B) and Ironomycin (C). Cell viability was examined using quantification of ATP assay. Data are expressed as mean percentage+/−SEM of at least three independent experiments performed in sixplicate.
(§2) The 16 DLBCL cell lines (U2932, OCI-LY-3, NU-DHL-1, OCI-LY-19, DB, SUDHL4, OCILY1, SUDHL5, DOHH2, SUDHL10, HT, RI-1, SU-DHL-6, NUDUL-1, WSU-DLCL-2 and OCI-LY-7) were purchased from the DSMZ (Leibniz-Institut DSMZ—Deutsche Sammlung von Mikroorganismen und Zellkulturen GmbH, Germany). They were maintained in RPMI-1640 (Gibco, Invitrogen), supplemented with 10% fetal bovine serum (PAA laboratory GmbH) for U2932, SUDHL-4, HT, DOHH2, SUDHL-10, RI-1, WSU-DLCL-2 cell lines, 20% FBS OCI-LY3, DB, SUDHL-5, NUDHL-1, SU-DHL-6, NUDUL-1 cell lines. OCI-LY1 and OCI-LY7 were cultured in IMDM (Gibco, Invitrogen), supplemented with 20% fetal bovine serum and OCI-LY19 was cultured in MEM alpha modified (Gibco, Invitrogen), supplemented with 20% fetal bovine serum. Cultures were maintained at 37° C. in a humidified atmosphere with 5% CO2.
(§3) DLBCL-derived cell lines were cultured for 4 days in 96-well flat-bottom microtiter plates in RPMI 1640 medium, 10% or 20% FCS (control medium) in the presence of various compounds. The number of viable cells in culture was determined using the CellTiter-Glo Luminescent Cell Viability Assay from Promega, Madison, Wis., USA using a Centro LB 960 luminometer (Berthold Technologies, Bad Wildbad, Germany).
(§4) This test is based on quantitation of the intracellular ATP present, which signals the presence of metabolically active cells. Data are expressed as the mean percentage of six replicates, normalized to the untreated control.

OCI-LY3 = assay: as above; assay type: cell-based, human; settings: cell viability by ATP quantification, read-out: 50% inhibitory concentration (IC50)
Experimental: as §1, §2, §3, §4

SUDHL-5 = assay: as above; assay type: cell-based, human; settings: SUDHL-5, 96H, cell viability by ATP quantification, read-out: 50% inhibitory concentration (IC50)
Experimental: as §1, §2, §3, §4

U2932 = assay: as above; assay type: cell-based, human; settings: cell viability by ATP quantification, read-out: 50% inhibitory concentration (IC50)
Experimental: as §1, §2, §3, §4

[1] = system: OCI-LY3 and DB cell lines
Source text: The inventors further investigated the effect of Iron supplementation on the cell death induced by these treatments. Iron chelators concentrations were chosen according the maximal plasmatic concentration achievable in the patient (Nisbet-Brown et al., 2003).
Chaetocin was used as positive control of ROS production inhibited by GSH (Isham et al., 2007).

Row | Structure (SMILES) | effect on erastin (ferroptosis inductor, positive control) (DLBCL cells) | toxicity in DLBCL cells (DLBCL cells) | IC50 (DB; 96H) [µM] | IC50 (DB; Homo sapiens, 96 h) [µM] | IC50 (OCI-LY3; Homo sapiens, OCI-Ly3, 96 h) [µM] | IC50 (OCI-LY3; OCI-LY3, 96H) [µM] | IC50 (SUDHL-5; Homo sapiens, SU-DHL-5, 96 h) [µM] | IC50 (SUDHL-5) [µM] | IC50 (U2932; Homo sapiens, U2932, 96 h) [µM] | IC50 (U2932; U2932, 96H) [µM] | effect of iron supplementation on drug-induced apoptosis / cytotoxicity [1]
1 | CCOC(=O)c1ccc(NC2CCCCC2)c(N)c1 [Ferrostatin, Ferrostatin-1, reference compound] | abrogated the effects of erastin | did not demonstrated significant toxicity |  |  |  |  |  |  |  |  | 
2 | CC(=O)N(O)CCCCCNC(=O)CCC(=O)N(O)CCCCCNC(=O)CCC(=O)N(O)CCCCCN [Deferoxamine] |  |  | 3.25 | 3.24 | 3.75 | 3.75 | 1.55 | 1.55 | 2.42 | 2.28 | significantly inhibited
3 | O=C(O)c1ccc(-n2nc(-c3ccccc3O)nc2-c2ccccc2O)cc1 [Deferasirox] |  |  | 13.9 | 13.9 | 9.5 | 9.5 | 1.48 | 1.48 | 4.79 | 4.79 | significantly inhibited
